Measurements taken from patent US20250375427A1 (Biohaven Therapeutics Ltd., priority 2022, published 2025).

How the values were obtained:
[1] = test system: O^6-methylguanine-DNA-methyltransferase (MGMT) expression; details: combined with temozolomide (TMZ); cited from earlier work
64SP stem like cells = details: combined with radiation; cited from earlier work
[2] = Clinical adverse events observed with troriluzole; details: human, in vivo
From the text: In general, mild liver enzymes elevations attributed to troriluzole occur due to enzyme induction and are likely to resolve spontaneously within 12 weeks without any changes in the dose of troriluzole. However, the investigator should evaluate the subject, as appropriate.

glioma = details: cited from earlier work

Compound: Nc1nc2ccc(OC(F)(F)F)cc2s1 [Riluzole, riluzole]
- effects of TMZ [1]: enhances the effects of TMZ via suppression of O^6-methylguanine-DNA-methyltransferase (MGMT) expression
- sensitivity to radiation (64SP stem like cells): enhances sensitivity to radiation

Compound: CN(CC(=O)Nc1nc2ccc(OC(F)(F)F)cc2s1)C(=O)CNC(=O)CN [Troriluzole, troriluzole]
- most commonly observed adverse events [2]: Mild increases in liver enzymes
- concentration of CD4+ T cells in TME (glioma; IF data, after troriluzole treatment): increased concentration of CD4+ T cells in TME
- proliferation of tumor-infiltrating T cells (glioma; troriluzole treatment): promoted proliferation of tumor-infiltrating T cells
- survival (glioma; troriluzole treatment): induced a survival benefit
- survival and T regulatory cells in combination with anti-PD-1 (glioma; with anti-PD-1 immunotherapy, glioma tumor microenvironment (TME)): synergized with anti-PD-1 immunotherapy to further improve survival and reduce T regulatory cells
